Data: the NIST ThermoML archive (doi:10.1016/j.jct.2012.11.011)

Assay: xn = mol fraction of the nth substance listed
Settings: Liquid, Vibrating tube method

CCCCCCCCCC [decane] + COC(=O)OC
mass density [kg/m3]
Settings | x2 = 0.0438 | x2 = 0.11 | x2 = 0.2348 | x2 = 0.3516 | x2 = 0.3944 | x2 = 0.557 | x2 = 0.8035 | x2 = 0.95
288.15 K, 100 kPa | 739 | 749 | 769.2 | 792 | 801.9 | 844.5 | 944.4 | 1034.2
288.15 K, 5000 kPa | 742.7 | 753.6 | 773.1 | 796 | 805.9 | 848.7 | 948.8 | 1038.5
288.15 K, 10000 kPa | 746.2 | 757.2 | 776.8 | 799.9 | 809.8 | 852.6 | 953.1 | 1042.8
288.15 K, 20000 kPa | 752.7 | 763.9 | 783.7 | 807 | 817 | 858.8 | 963.1 | 1050.8
288.15 K, 30000 kPa | 758.8 | 769.8 | 790 | 813.4 | 823.5 | 865 | 971.2 | 1058.2
288.15 K, 40000 kPa | 764.3 | 775.8 | 796.1 | 819.7 | 829.3 | 872.6 | 977.8 | 1065.3
298.15 K, 100 kPa | 731.3 | 741.9 | 760.8 | 783.2 | 793.3 | 831.4 | 932.1 | 1021.4
298.15 K, 5000 kPa | 735.6 | 746.2 | 765.5 | 787.9 | 798 | 836.7 | 937.6 | 1026.5
298.15 K, 10000 kPa | 739 | 749.7 | 769 | 791.4 | 801.8 | 840.5 | 942.1 | 1030.7
298.15 K, 20000 kPa | 745.9 | 756.6 | 776.2 | 799 | 809.4 | 848.3 | 951.1 | 1039
298.15 K, 30000 kPa | 752.2 | 763.1 | 782.9 | 805.9 | 816.6 | 856.1 | 959.2 | 1047
298.15 K, 40000 kPa | 758.1 | 769 | 789 | 812.2 | 823 | 863.2 | 966.8 | 1054.4
308.15 K, 100 kPa | 723.6 | 733.9 | 752.5 | 774.3 | 783.8 | 820.2 | 920.7 | 1008.8
308.15 K, 5000 kPa | 727.7 | 738.2 | 756.9 | 778.9 | 788.5 | 825.6 | 926.3 | 1013.8
308.15 K, 10000 kPa | 731.7 | 742.2 | 761 | 783.2 | 792.8 | 830.8 | 931.6 | 1018.5
308.15 K, 20000 kPa | 739 | 749.7 | 768.6 | 790.9 | 801.1 | 840 | 941.1 | 1027.6
308.15 K, 30000 kPa | 745.6 | 756.4 | 775.6 | 798.3 | 808.4 | 848.4 | 949.7 | 1035.9
308.15 K, 40000 kPa | 751.8 | 762.6 | 782.1 | 804.9 | 815.3 | 856.1 | 957.8 | 1043.7

CCOC(=O)OCC [diethyl carbonate] + CCCCCCCC
mass density [kg/m3]
Settings | x1 = 0.0522 | x1 = 0.1042 | x1 = 0.1671 | x1 = 0.322 | x1 = 0.3657 | x1 = 0.5075 | x1 = 0.6922 | x1 = 0.8002 | x1 = 0.9206 | x1 = 0.9459
288.15 K, 100 kPa | 716 | 726.1 | 738.6 | 772.6 | 784 | 820.5 | 874.2 | 908.5 | 951 | 959.8
288.15 K, 5000 kPa | 720.1 | 730.4 | 742.8 | 778.1 | 788.4 | 824.9 | 879.4 | 912.8 | 954.9 | 964.3
288.15 K, 10000 kPa | 723.9 | 734.4 | 746.8 | 782.1 | 792.6 | 829 | 883.7 | 917 | 958.8 | 968.6
288.15 K, 20000 kPa | 731.2 | 741.6 | 754.1 | 789.6 | 800.1 | 836.8 | 891.6 | 925 | 966.5 | 976.3
288.15 K, 30000 kPa | 737.8 | 748.2 | 760.7 | 796.5 | 807.1 | 843.9 | 898.5 | 932.1 | 973.8 | 983.3
288.15 K, 40000 kPa | 744 | 754.5 | 767.2 | 803.1 | 813.7 | 850.5 | 907.6 | 939 | 980.7 | 990.3
298.15 K, 100 kPa | 707.7 | 717.7 | 729.9 | 764.5 | 774.7 | 810.7 | 864.7 | 897.7 | 939.2 | 949.3
298.15 K, 5000 kPa | 712.5 | 722.5 | 734.7 | 769.5 | 779.7 | 815.8 | 869.8 | 902.8 | 944.2 | 953.8
298.15 K, 10000 kPa | 716.3 | 726.3 | 738.5 | 773.4 | 783.7 | 819.8 | 873.8 | 906.9 | 948.2 | 957.7
298.15 K, 20000 kPa | 723.9 | 734 | 746.3 | 781.4 | 791.8 | 828.1 | 882 | 915.2 | 956.4 | 965.9
298.15 K, 30000 kPa | 730.8 | 741 | 753.4 | 788.8 | 799.1 | 835.6 | 889.8 | 922.8 | 964 | 973.6
298.15 K, 40000 kPa | 737.2 | 747.4 | 759.9 | 795.5 | 805.9 | 842.4 | 896.9 | 929.9 | 971.1 | 980.7
308.15 K, 100 kPa | 699.6 | 709.3 | 721.2 | 755.4 | 765.4 | 801 | 854.3 | 887.1 | 928 | 937.6
308.15 K, 5000 kPa | 704.2 | 714 | 725.9 | 760.4 | 770.4 | 805.9 | 859.3 | 892 | 932.9 | 942.6
308.15 K, 10000 kPa | 708.7 | 718.5 | 730.5 | 765.1 | 775.1 | 810.8 | 864.1 | 896.8 | 937.6 | 947.3
308.15 K, 20000 kPa | 716.6 | 726.5 | 738.7 | 773.3 | 783.6 | 819.4 | 873 | 905.6 | 946.3 | 956
308.15 K, 30000 kPa | 723.8 | 733.9 | 746.2 | 781.1 | 791.2 | 827.2 | 880.9 | 913.7 | 954.3 | 964.1
308.15 K, 40000 kPa | 730.5 | 740.7 | 753 | 788 | 798.3 | 834.6 | 888.3 | 921.2 | 961.9 | 971.5
